In EP2245032B1, “FOLATES, COMPOSITIONS AND USES THEREOF” (priority 2008, dated 2009):
Where a name gives a salt, the structure may show the parent alone.

What was measured:
[1] = after twelve months; US 6,441,168 (Example 1); 525600 min; cited from earlier work
[2] = Stability of the powder in sealed aluminium foil bag, purity and titre by HPLC after 6 and 12 months; assay type: physicochemical; details: airtight container, protected from light; for Starting values Purity / Starting values Titre: start
Experimental: The stability of the compounds listed in the following table, under powder form and in sealed aluminium foil bag, was tested, keeping the samples in airtight container, protected from light and measuring the purity and the titre thereof after 6 and 12 months.
In particular, the stability of the acid moiety was observed by HPLC, detecting the purity and titre thereof.

[3] = general knowledge stated in the introduction; cited from earlier work

Row | SMILES | titre decrease [1] | After 6 months Purity [2] | After 6 months Titre [2] | After 12 months Purity [2] | After 12 months Titre [2] | Starting values Purity [2] | Starting values Titre [2] | solubility in water (in words) [3]
1 | CN1c2c(nc(N)[nH]c2=O)NCC1CNc1ccc(C(=O)NC(CCC(=O)O)C(=O)O)cc1 [5-methyl-(6S)-tetrahydrofolic acid calcium salts] | about 1% |  |  |  |  |  |  | 
2 | CN1c2c(nc(N)[nH]c2=O)NCC1CNc1ccc(C(=O)N[C@@H](CCC(=O)O)C(=O)O)cc1 (stereo partly drawn) [D-GAL (6R,S)-5-MTHF, D-galactosamine 5-methyl-(6R,S)-tetrahydrofolate] |  | 98.9 | 55.2 | 98.7 | 55.3 | 99.1 | 55.5 | 
3 | Nc1nc2ncc(CNc3ccc(C(=O)N[C@@H](CCC(=O)O)C(=O)O)cc3)nc2c(=O)[nH]1 [D-GAL folate, D-galactosamine L-folate] |  | 99.1 | 54.5 | 98.7 | 54.2 | 99.2 | 54.8 | 
4 | CN1c2c(nc(N)[nH]c2=O)NCC1CNc1ccc(C(=O)N[C@@H](CCC(=O)O)C(=O)O)cc1 (stereo partly drawn) [D-GLU 5-MTHF, D-glucosamine 5-methyl-(6R,S)-tetrahydrofolate] |  | 98.9 | 55.0 | 99.0 | 54.8 | 99.1 | 55.2 | 
5 | CN1c2c(nc(N)[nH]c2=O)NCC1CNc1ccc(C(=O)NC(CCC(=O)O)C(=O)O)cc1 [D-GLU (6S)-5-MTHF, D-glucosamine 5-methyl-(6S)-tetrahydrofolate] |  | 99.0 | 55.4 | 98.5 | 55.1 | 99.3 | 55.7 | 
6 | Nc1nc2ncc(CNc3ccc(C(=O)N[C@@H](CCC(=O)O)C(=O)O)cc3)nc2c(=O)[nH]1 [D-GLU folate, D-glucosamine L-folate] |  | 98.8 | 54.3 | 98.7 | 54.0 | 99.1 | 54.6 | 
7 | Nc1nc2ncc(CNc3ccc(C(=O)N[C@@H](CCC(=O)O)C(=O)O)cc3)nc2c(=O)[nH]1 [Folic acid, N-[4-[[(2-amino-1,4-dihydro-4-oxo-6-pteridinyl)methyl]amino]benzoyl]-L-glutamic acid] |  |  |  |  |  |  |  | very slightly soluble in water
